Test results taken from PubChem BioAssay AID248 (DTP/NCI, 2004).
Several values for one entry are separate records, joined by “and”; a condition that tells them apart may be missing. Identical values can stand only once. Toxic doses and inconclusive results are not listed.

Test system: L1210 leukemia ip in BDF1 mice, survival T/C
Assay: NCI In Vivo Anticancer Drug Screen. Data for tumor model L1210 Leukemia (intraperitoneal) in B6D2F1 (BDF1) mice
Settings: endpoint: mean survival time, higher = longer survival
Outline: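 Transplanted-tumor mice were given test agent; controls received vehicle only. Survival readings from the two groups were divided (treated over control).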

[1] = dose: 100.0 mg/kg/injection, schedule: Q01DX009 (ip), vehicle: Klucel (hydroxypropylcellulose) (HPC)
[2] = dose: 200.0 mg/kg/injection, schedule: Q01DX009 (ip), vehicle: Klucel (hydroxypropylcellulose) (HPC)

**Q.** Which T/C (dose: 6.0 mg/kg/injection, schedule: Q01DX009 (ip), vehicle: Klucel (hydroxypropylcellulose) (HPC)) does the source give for `COc1cc2c(cc1OC)C(C#N)C2` (centres undefined) here?
**A.** The T/C was 104 % of control.

**Q.** And the T/C (dose: 12.0 mg/kg/injection, schedule: Q01DX009 (ip), vehicle: Klucel (hydroxypropylcellulose) (HPC))?
**A.** Its T/C is 92 % of control.

**Q.** What about the T/C (dose: 12.0 mg/kg/injection, schedule: Q04DX003 (ip), vehicle: Klucel (hydroxypropylcellulose) (HPC)) of the same compound?
**A.** The T/C was 100 % of control and 105 % of control.

**Q.** What about the T/C (dose: 25.0 mg/kg/injection, schedule: Q01DX009 (ip), vehicle: Klucel (hydroxypropylcellulose) (HPC)) of the same compound?
**A.** The T/C was 100 % of control.

**Q.** What about the T/C (dose: 25.0 mg/kg/injection, schedule: Q04DX003 (ip), vehicle: Klucel (hydroxypropylcellulose) (HPC)) of the same compound?
**A.** The T/C was 100 % of control.

**Q.** And the T/C (dose: 50.0 mg/kg/injection, schedule: Q04DX003 (ip), vehicle: Klucel (hydroxypropylcellulose) (HPC))?
**A.** Its T/C is 97 % of control and 92 % of control.

**Q.** Which results are given for `COC(=O)c1cc(=O)[nH]n1C`?
**A.** T/C [1]: 104 % of control; T/C [2]: 104 % of control; T/C (dose: 400.0 mg/kg/injection, schedule: Q01DX009 (ip), vehicle: Klucel (hydroxypropylcellulose) (HPC)): 101 % of control

**Q.** Which results are given for `CCCCc1ccc(NC(=O)N(CCCl)N=O)cc1`?
**A.** T/C (dose: 6.0 mg/kg/injection, schedule: Q01DX009 (ip), vehicle: carboxymethylcellulose (CMC)): 156 % of control; T/C (dose: 33.0 mg/kg/injection, schedule: Q01DX009 (ip), vehicle: carboxymethylcellulose (CMC)): 175 % of control; T/C (dose: 37.5 mg/kg/injection, schedule: Q01DX001 (ip), vehicle: carboxymethylcellulose (CMC)): 163 % of control; T/C (dose: 50.0 mg/kg/injection, schedule: Q01DX009 (ip), vehicle: carboxymethylcellulose (CMC)): 180 % of control; T/C (dose: 75.0 mg/kg/injection, schedule: Q01DX001 (ip), vehicle: carboxymethylcellulose (CMC)): 194 % of control; T/C (dose: 75.0 mg/kg/injection, schedule: Q01DX009 (ip), vehicle: carboxymethylcellulose (CMC)): 106 % of control; T/C (dose: 75.0 mg/kg/injection, schedule: Q04DX003 (ip), vehicle: saline with Tween-80): 120 % of control; T/C (dose: 112.5 mg/kg/injection, schedule: Q01DX009 (ip), vehicle: carboxymethylcellulose (CMC)): 87 % of control; T/C (dose: 150.0 mg/kg/injection, schedule: Q01DX001 (ip), vehicle: carboxymethylcellulose (CMC)): 260 % of control

**Q.** Which T/C (dose: 100.0 mg/kg/injection, schedule: Q04DX003 (ip), vehicle: water) does the source give for `O=C(/C=C/c1ccccc1)c1ccc2c(c1)OCO2` here?
**A.** Its T/C is 98 % of control.

**Q.** What about the T/C (dose: 200.0 mg/kg/injection, schedule: Q04DX003 (ip), vehicle: water) of the same compound?
**A.** The T/C was 96 % of control.

**Q.** And the T/C (dose: 400.0 mg/kg/injection, schedule: Q04DX003 (ip), vehicle: water)?
**A.** The T/C was 94 % of control.

**Q.** How did the T/C (dose: 100.0 mg/kg/injection, schedule: Q01DX001 (ip), vehicle: saline with Tween-80) turn out when `CCOC(=O)C(C)SCC(CSC(C)C(=O)OCC)(CSC(C)C(=O)OCC)CSC(C)C(=O)OCC` (centres undefined) was run?
**A.** The T/C was 104 % of control.

**Q.** What about the T/C (dose: 200.0 mg/kg/injection, schedule: Q01DX001 (ip), vehicle: saline with Tween-80) of the same compound?
**A.** The T/C was 107 % of control.

**Q.** What about the T/C (dose: 400.0 mg/kg/injection, schedule: Q01DX001 (ip), vehicle: saline with Tween-80) of the same compound?
**A.** The T/C was 104 % of control.

**Q.** What does the source list for `Cc1ccc2c(c1)C1CCC3(CC1OC2(C)C)OC(C)(C)c1cc(C)ccc13` (centres undefined)?
**A.** T/C [1]: 95 % of control; T/C (dose: 100.0 mg/kg/injection, schedule: Q04DX003 (ip), vehicle: Klucel (hydroxypropylcellulose) (HPC)): 105 % of control; T/C [2]: 89 % of control; T/C (dose: 200.0 mg/kg/injection, schedule: Q04DX003 (ip), vehicle: Klucel (hydroxypropylcellulose) (HPC)): 95 % of control; T/C (dose: 400.0 mg/kg/injection, schedule: Q04DX003 (ip), vehicle: Klucel (hydroxypropylcellulose) (HPC)): 95 % of control

**Q.** How did the T/C (dose: 9.38 mg/kg/injection, schedule: Q01DX001 (ip), vehicle: other) turn out when `[Br][Hg][Br].c1ccc(N=P(c2ccccc2)(c2ccccc2)c2ccccc2)cc1` was run?
**A.** The T/C was 95 % of control.

**Q.** What about the T/C (dose: 18.75 mg/kg/injection, schedule: Q01DX001 (ip), vehicle: other) of the same compound?
**A.** Its T/C is 95 % of control.

**Q.** And the T/C (dose: 37.5 mg/kg/injection, schedule: Q01DX001 (ip), vehicle: other)?
**A.** Its T/C is 100 % of control.

**Q.** With `CCC1(O)C(=O)OCc2c1ccn(C)c2=O` (centres undefined) as the compound, how does the T/C (dose: 18.7 mg/kg/injection, schedule: Q01DX001 (ip), vehicle: saline) read?
**A.** Its T/C is 113 % of control.

**Q.** What about the T/C (dose: 37.5 mg/kg/injection, schedule: Q01DX001 (ip), vehicle: saline) of the same compound?
**A.** Its T/C is 105 % of control.

**Q.** And the T/C (dose: 75.0 mg/kg/injection, schedule: Q01DX001 (ip), vehicle: saline)?
**A.** Its T/C is 102 % of control.

**Q.** What about the T/C (dose: 150.0 mg/kg/injection, schedule: Q01DX001 (ip), vehicle: saline) of the same compound?
**A.** Its T/C is 102 % of control.

**Q.** `Cc1csc2nc(-c3ccccc3)nc(Cl)c12` was tested. Which T/C (dose: 100.0 mg/kg/injection, schedule: Q04DX003 (ip), vehicle: saline sonified) did it give?
**A.** The T/C was 97 % of control.

**Q.** And the T/C (dose: 200.0 mg/kg/injection, schedule: Q04DX003 (ip), vehicle: saline sonified)?
**A.** The T/C was 93 % of control.

**Q.** What about the T/C (dose: 400.0 mg/kg/injection, schedule: Q04DX003 (ip), vehicle: saline sonified) of the same compound?
**A.** The T/C was 95 % of control.
